From ChEMBL document CHEMBL1137517, “Rational design, synthesis and evaluation of (6aR( *),11bS( *))-1-(4-fluorophenyl)-4-{7-[4-(4-fluorophenyl)-4-oxobutyl]1,2,3,4,6,6a,7,11b,12,12a(RS)-decahydropyrazino[2',1':6,1]pyrido[3,4-b]indol-2-yl}-butan-1-one as a potential neuroleptic agent” (Bioorg Med Chem, 2007)

Key:
D(2) dopamine receptor = D(2) dopamine receptor (Rattus norvegicus, UniProt P61169); assay: Displacement of [3H]spiperone from dopamine D2 receptor in rat brain; type: tissue-based
[1] = target: 5-hydroxytryptamine receptor 2A (Rattus norvegicus, UniProt P14842); assay: Displacement of [3H]ketanserin from 5HT2A receptor in rat brain; type: tissue-based
Mus musculus [2] = assay: Reduction of amphetamine-induced hyperactivity in ip dosed mouse; type: functional
D(1A) dopamine receptor = D(1A) dopamine receptor (Rattus norvegicus, UniProt P18901); assay: Displacement of [3H]SCH-23390 from dopamine D1 receptor in rat brain; type: tissue-based
Rattus norvegicus [3] = assay: Blockade of conditioned avoidance response in ip dosed rat; type: functional
Rattus norvegicus [4] = species: Rattus norvegicus; assay: Ratio of ED50 for cataleptic activity in rat to ED50 for conditioned avoidance response in rat; type: functional
Mus musculus [5] = assay: Antagonism of amphetamine-induced toxicity in ip dosed mouse; type: functional
Rattus norvegicus [6] = assay: Cataleptic activity in ip dosed rat; type: ADME, organism-based; conditions: in vivo
Rattus norvegicus [7] = assay: Blockade of secondary conditioned avoidance response in ip dosed rat; type: functional
Rattus norvegicus [8] = assay: Blockade of unconditioned avoidance response in ip dosed rat; type: functional
Mus musculus [9] = assay: Effect on locomotor activity in ip dosed mouse assessed as motor deficit by rota rod test; type: functional

5-hydroxytryptamine receptor 2A, sequence (P14842 whole entry): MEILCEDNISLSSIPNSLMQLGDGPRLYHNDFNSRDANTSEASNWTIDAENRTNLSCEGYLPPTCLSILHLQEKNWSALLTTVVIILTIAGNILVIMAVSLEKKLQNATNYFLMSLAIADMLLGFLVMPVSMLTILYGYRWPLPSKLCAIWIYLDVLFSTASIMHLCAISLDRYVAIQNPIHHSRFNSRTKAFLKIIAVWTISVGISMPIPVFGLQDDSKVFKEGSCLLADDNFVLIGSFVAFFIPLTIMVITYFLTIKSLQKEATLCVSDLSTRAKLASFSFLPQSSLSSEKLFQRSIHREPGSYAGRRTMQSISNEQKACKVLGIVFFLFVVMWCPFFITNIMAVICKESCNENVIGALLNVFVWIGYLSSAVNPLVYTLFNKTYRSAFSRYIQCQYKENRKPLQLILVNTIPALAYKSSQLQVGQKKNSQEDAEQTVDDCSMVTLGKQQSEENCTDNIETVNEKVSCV
D(2) dopamine receptor, sequence (P61169 whole entry): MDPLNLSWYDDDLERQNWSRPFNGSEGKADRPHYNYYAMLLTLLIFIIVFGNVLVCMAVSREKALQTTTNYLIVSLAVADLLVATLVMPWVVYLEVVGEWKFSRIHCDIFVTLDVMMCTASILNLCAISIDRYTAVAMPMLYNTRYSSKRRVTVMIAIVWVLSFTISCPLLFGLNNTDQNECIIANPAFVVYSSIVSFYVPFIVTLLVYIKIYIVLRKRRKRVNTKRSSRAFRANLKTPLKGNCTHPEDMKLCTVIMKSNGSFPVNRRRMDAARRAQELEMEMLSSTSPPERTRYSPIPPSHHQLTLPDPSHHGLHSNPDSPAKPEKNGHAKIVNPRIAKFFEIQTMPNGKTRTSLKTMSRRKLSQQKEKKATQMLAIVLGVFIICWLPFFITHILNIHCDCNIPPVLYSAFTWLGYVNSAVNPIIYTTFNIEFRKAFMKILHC
D(1A) dopamine receptor, sequence (P18901 whole entry): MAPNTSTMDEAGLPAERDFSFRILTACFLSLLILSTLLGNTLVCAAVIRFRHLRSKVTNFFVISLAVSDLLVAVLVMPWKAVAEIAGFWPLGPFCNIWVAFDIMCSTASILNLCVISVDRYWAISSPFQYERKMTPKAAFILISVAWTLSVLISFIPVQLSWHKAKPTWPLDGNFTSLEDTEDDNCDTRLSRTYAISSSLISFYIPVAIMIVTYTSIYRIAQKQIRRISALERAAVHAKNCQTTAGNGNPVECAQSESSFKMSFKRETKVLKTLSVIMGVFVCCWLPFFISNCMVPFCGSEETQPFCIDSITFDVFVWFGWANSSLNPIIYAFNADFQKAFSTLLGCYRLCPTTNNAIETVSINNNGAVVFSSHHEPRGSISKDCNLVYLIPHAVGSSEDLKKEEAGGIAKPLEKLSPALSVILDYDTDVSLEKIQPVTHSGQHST

SMILES	Ki (D(2) dopamine receptor) [nM]	Ki [1] [nM]	ED50 (Mus musculus [2]) [mg/kg]	Ki (D(1A) dopamine receptor) [nM]	ED50 (Rattus norvegicus [3]) [mg/kg]	Ratio (Rattus norvegicus [4])	ED50 (Mus musculus [5]) [mg/kg]	ED50 (Rattus norvegicus [6]) [mg/kg]	ED50 (Rattus norvegicus [7]) [mg/kg]	ED50 (Rattus norvegicus [8]) [mg/kg]	ED50 (Mus musculus [9]) [mg/kg]
O=C(CCCN1c2ccccc2C2CC3CNCCN3CC21)c1ccc(F)cc1 (mixture of isomers)	> 100000	> 100000	–	–	–	–	–	–	–	–	–
O=C(CCCN1CCN2CC3Nc4ccccc4C3CC2C1)c1ccc(F)cc1 (stereo not drawn)	93.8	92.5	–	–	–	–	–	–	–	–	–
O=C(CCCN1CCN2CC3C(CC2C1)c1ccccc1N3CCCC(=O)c1ccc(F)cc1)c1ccc(F)cc1 (stereo not drawn)	2250	9.35	1.71	0.643	0.07	12.6	5.75	0.88	0.01	5.6	4.33
O=C(CCCN1CCN2Cc3[nH]c4ccccc4c3CC2C1)c1ccc(F)cc1 (stereo not drawn) [BIRIPERONE]	13.2	24	0.75	425	0.09	9.5	1	0.86	0.04	9.8	2.55
O=C(CCCN1CCC(O)(c2ccc(Cl)cc2)CC1)c1ccc(F)cc1 [HALOPERIDOL]	–	–	–	–	0.1	–	–	–	0.04	–	–
